Data on one molecule can be found in patent publication US11110195B2, “Esculentin 1a derivatives and uses thereof” (University of Houston System, priority 2013, dated 2021).

Residues, ends and D or L forms follow the SMILES beside them.

Assay [1] deals with HaCaT cells. In words: Wound healing assay, HaCaT cells. The class given is cell-based, human. As to conditions: HaCaT monolayer. As for the experimental part:
The percentage of cell-covered area at each time point is reported on the y-axis. Control (Ctrl) represents cells not treated with the peptide. All data are the mean of at least three independent experiments ±SEM. […] The optimal concentration allowing gap closure was 0.25 μM.
The experimental procedure is similar to that described in Example 6 with the following two differences: (i) 40,000 cells suspended in DMEM supplemented with 4 mM glutamine and 10% FBS were seeded on each side of the ibidi culture inserts instead of 70,000 cells in KGM-2g as for corneal epithelial cells; (ii) serum-free medium was used in the wound healing assay instead of medium supplemented with 5% FBS as for corneal epithelial cells. […] Overall, the experiments indicate that Esc-1a(1-21)NH2 can stimulate wound closure in different types of mammalian cells but this is with a different kinetic or optimal concentration and thus a stereospecific mechanism involving a direct/indirect activation of different signalling transduction cascades (depending on the selected cell type) likely subtends such events.

Assay [2] concerns P. aeruginosa ATCC 27853. As to conditions: soluble free form, 1 μM, within 20 minutes in PBS.
The subject of assay [3] is P. aeruginosa ATCC 27853. Put plainly: Bactericidal activity in the presence of salt (NaCl). It counts as cell-based, Pseudomonas aeruginosa. As to conditions: 150 mM NaCl, 37° C., 20 min. The procedure: FIGS. 1A-1B show the effects of salt on the bactericidal activity of Esc-1a(1-21)NH2 against P. aeruginosa ATCC 27853. FIG. 1A: Bacterial cells were incubated with different concentrations of Esc-1a(1-21)NH2 in the presence of 150 mM NaCl for 20 minutes at 37° C. Mean data from three experiments, expressed as the percentage of bacteria killed by the peptide with respect to the control sample (bacteria not treated with the peptide) are reported. FIG. 1B: Bacterial cells were incubated with the peptide (1 μM) in the absence or in the presence of varying concentrations of NaCl at 37° C. for 20 minutes. Mean data from three experiments, expressed as the percentage of bacteria killed by the peptide with respect to the control sample (bacteria not treated with the peptide) are reported.
Owing to their mode of action, the antimicrobial activity of antimicrobial peptides may be reduced in the presence of salt. […] In FIG. 1B, 2×10^6 CFU/ml P. aeruginosa (ATCC 27853) were incubated with 1 μM Esc-1a(1-21)NH2 in the presence of increasing amounts of NaCl at 37° C. for 20 minutes then aliquots plated and counted (n=3). Concentrations of Esc-1a(1-21)NH2 at 0.68 μM and above fully retained activity in 150 mM NaCl, the physiological salt concentration at the ocular surface.

Assay [4] deals with Pseudomonas aeruginosa ATCC 19660 induced keratitis. Put plainly: Neutrophil infiltration into cornea by myeloperoxidase (MPO) assay. The class given is in vivo, C57BL/6 mice. The source says: Corneas were harvested 1,3 and 5 days after infection and neutrophil infiltration determined by MPO assay. […] PI=post infection, Pre-trt=pretreatment with Esc-1a(1-21)NH2. *Indicates significant difference, p<0.05, among PBS control and peptide treated groups.
To determine a clinical score, neutrophil infiltration by myeloperoxidase assay (MPO assay) and viable bacterial cell counts in infected and control corneas of C57BL/6 mice with Pseudomonas aeruginosa ATCC 19660 keratitis following pre-treatment and post-infection treatment with Esc-1a(1-21)NH2 up to 5 days post-infection (PI) the following experiment was performed. In these experiments pre-treatment refers to a group of animals where treatment was initiated 24 hrs before infection then continued after infection.
An MPO assay was used to quantitate polymorphonuclear cell numbers in the cornea from both infected corneas (n=2/group/time point) of Esc-1a(1-21)NH2 treated and control (PBS) treated animals. Briefly, corneas were harvested at days 1, 3 and 5 PI. The change in absorbance at 450 nm was monitored for one hour at 15-30 minute intervals. The results were expressed as units of MPO per cornea. One unit of MPO activity is equivalent to 2*10^5 polymorphonuclear cells.
Harvested and pooled corneas (2 mice/group) in 200 μl of sterile PBS/cornea. Placed the harvested corneas on ice until further processing. Homogenized the corneas for 30-45 seconds and briefly sonicated them for 10-20 seconds.
C. Added 10 μl of 0.5% HTAB (hexadecyltrimethylammonium bromide in potassium phosphate buffer 50 mM pH 6) to 90 μl homogenate (*stored the remaining homogenate on ice to obtain recoverable P. aeruginosa counts for viability assay).
D. Sonicated samples 2×5 seconds then freeze thawed three times on liquid nitrogen.
E. Centrifuged at 14000*g at 4° C. for 20 minutes.
F. To 10 ml of phosphate buffer added 0.00167 g 0-dianisidine dihydrochloride and 1.67 μl (0.05%) H2O2. 90 μl of this was added to each well to produce the color reaction (protected the solution from light).
G. Made up standards for MPO using phosphate buffer based on the initial concentration of the MPO. Double diluted 25 μl MPO standard & carry 25 μl over since 10 μl was needed per well (run in duplicate).
H. Added 10 μl of each standard to 96 well plate and 10 μl sample supernatant (in triplicate).
I. Added 90 μl phosphate buffer containing O-d-d and H2O2 to the plate. Popped bubbles and read on spectrophotometer at 450 nm at 3 minutes, 5 minutes, 10 minutes, 15 minutes, 30 minutes, 45 minutes and 60 minutes.
The MPO units per cornea were determined and the mean from 3 independent experiments was plotted (FIG. 6).

In the case of `CC[C@H](C)[C@H](NC(=O)CN)C(=O)N[C@@H](Cc1ccccc1)C(=O)N[C@@H](CO)C(=O)N[C@@H](CCCCN)C(=O)N[C@@H](CC(C)C)C(=O)N[C@@H](C)C(=O)NCC(=O)N[C@@H](CCCCN)C(=O)N[C@@H](CCCCN)C(=O)N[C@H](C(=O)N[C@@H](CCCCN)C(=O)N[C@@H](CC(N)=O)C(=O)N[C@@H](CC(C)C)C(=O)N[C@@H](CC(C)C)C(=O)N[C@H](C(=O)N[C@@H](CO)C(=O)NCC(=O)N[C@@H](CC(C)C)C(=O)N[C@@H](CCCCN)C(=O)NCC(N)=O)[C@@H](C)CC)[C@@H](C)CC` [Esc-1a(1-21)NH2] (H-GIFSKLAGKKIKNLLISGLKG-NH2; N-terminus assumed), the “optimal concentration allowing gap closure” value in assay [1] is 0.25 µM. Besides, the “time to coverage of the wound-field” value in assay [1] (bell-shaped dose-response) was 9 to 12 h. Besides, in assay [2], the killing is reported as roughly 99.9%. In addition, the “Peptide concentration fully retaining bactericidal activity” value in assay [3] is no less than 0.68 µM. Moreover, the “normalized MPO activity per cornea” value in assay [4] (pre-treated, day 1 PI) is reported as 1.55±0.4 MPO units; in assay [4] (pre-treated, day 3 PI), 1.66±0.13 MPO units; in assay [4] (pre-treated, day 5 PI) it was 1.55±0.28 MPO units; in assay [4] (treated after infection, day 1 PI), 1.69±0.40 MPO units; in assay [4] (treated after infection, day 3 PI), 1.84±0.16 MPO units; in assay [4] (treated after infection, day 5 PI) it was 1.82±0.42 MPO units.
